Patent publication US12685735B2 (Foghorn Therapeutics Inc., priority 2020, dated 2026)

Assays:
[1] = target: BRM (Homo sapiens, UniProt P51531); assay: ATPase catalytic activity assay of BRM (ADP-Glo); type: biochemical; conditions: for IC50: read-out: BRM IC50 (μM)*
Outline: (§1)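 ADP formed by the ATPase reaction was quantified by ADP-Glo luminescence. After the reaction, unconsumed ATP was depleted (40 min, room temperature), then ADP was converted to ATP for luciferase detection (60 min, room temperature) before reading on a luminometer.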

[2] = target: BRG-1 (Homo sapiens, UniProt P51532); assay: ATPase catalytic activity assay of BRG-1 (ADP-Glo); type: biochemical; conditions: ATPase catalytic activity, ADP-Glo; for IC50: read-out: BRG1 IC50 (μM)*; for Emax: read-out: BRG1 Max % Inhibition
Sequence of BRG-1 (P51532 whole entry): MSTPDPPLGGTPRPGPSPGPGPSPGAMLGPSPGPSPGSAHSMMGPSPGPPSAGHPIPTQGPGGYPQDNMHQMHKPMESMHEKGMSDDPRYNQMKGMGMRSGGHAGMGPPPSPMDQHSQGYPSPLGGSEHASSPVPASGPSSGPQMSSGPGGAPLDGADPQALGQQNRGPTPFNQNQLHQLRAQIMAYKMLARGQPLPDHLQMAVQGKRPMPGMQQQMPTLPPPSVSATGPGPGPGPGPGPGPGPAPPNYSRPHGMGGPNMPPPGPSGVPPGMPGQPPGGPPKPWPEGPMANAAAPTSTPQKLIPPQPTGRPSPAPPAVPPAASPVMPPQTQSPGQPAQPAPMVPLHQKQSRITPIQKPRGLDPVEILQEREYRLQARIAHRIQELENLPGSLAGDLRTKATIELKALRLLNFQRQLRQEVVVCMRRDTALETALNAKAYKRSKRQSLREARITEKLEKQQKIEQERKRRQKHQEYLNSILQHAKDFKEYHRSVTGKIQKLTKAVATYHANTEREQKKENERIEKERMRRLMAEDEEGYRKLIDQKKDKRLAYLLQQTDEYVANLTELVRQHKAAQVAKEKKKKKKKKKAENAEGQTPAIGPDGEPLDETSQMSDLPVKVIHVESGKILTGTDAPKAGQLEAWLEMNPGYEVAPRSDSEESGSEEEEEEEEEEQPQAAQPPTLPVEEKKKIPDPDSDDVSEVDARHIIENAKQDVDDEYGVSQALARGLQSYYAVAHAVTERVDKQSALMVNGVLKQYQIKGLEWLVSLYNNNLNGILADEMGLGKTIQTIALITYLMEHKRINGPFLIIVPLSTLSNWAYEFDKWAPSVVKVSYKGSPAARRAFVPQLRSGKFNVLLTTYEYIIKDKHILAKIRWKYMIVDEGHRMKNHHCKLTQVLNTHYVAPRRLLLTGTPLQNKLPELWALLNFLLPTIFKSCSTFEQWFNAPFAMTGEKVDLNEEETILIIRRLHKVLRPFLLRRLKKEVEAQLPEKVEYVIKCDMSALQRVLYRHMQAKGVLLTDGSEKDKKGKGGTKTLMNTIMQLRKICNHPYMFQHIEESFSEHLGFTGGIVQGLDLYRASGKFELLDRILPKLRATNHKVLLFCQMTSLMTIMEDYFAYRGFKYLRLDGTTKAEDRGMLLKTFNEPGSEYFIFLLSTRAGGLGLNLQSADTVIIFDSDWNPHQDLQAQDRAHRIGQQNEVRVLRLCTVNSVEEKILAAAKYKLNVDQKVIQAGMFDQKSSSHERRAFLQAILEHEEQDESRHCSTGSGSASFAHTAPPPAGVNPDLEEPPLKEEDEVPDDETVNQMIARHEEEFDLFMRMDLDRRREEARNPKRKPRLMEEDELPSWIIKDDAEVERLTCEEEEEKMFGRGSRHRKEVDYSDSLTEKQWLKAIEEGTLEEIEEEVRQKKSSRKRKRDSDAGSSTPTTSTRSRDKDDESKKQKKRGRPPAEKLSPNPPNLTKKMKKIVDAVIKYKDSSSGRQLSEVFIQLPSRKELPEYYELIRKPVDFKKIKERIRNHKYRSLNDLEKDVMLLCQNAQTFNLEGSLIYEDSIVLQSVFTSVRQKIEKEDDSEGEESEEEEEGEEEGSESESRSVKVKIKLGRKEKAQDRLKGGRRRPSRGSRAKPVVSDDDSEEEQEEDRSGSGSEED
Outline: as §1

Sequence of BRM (P51531 whole entry): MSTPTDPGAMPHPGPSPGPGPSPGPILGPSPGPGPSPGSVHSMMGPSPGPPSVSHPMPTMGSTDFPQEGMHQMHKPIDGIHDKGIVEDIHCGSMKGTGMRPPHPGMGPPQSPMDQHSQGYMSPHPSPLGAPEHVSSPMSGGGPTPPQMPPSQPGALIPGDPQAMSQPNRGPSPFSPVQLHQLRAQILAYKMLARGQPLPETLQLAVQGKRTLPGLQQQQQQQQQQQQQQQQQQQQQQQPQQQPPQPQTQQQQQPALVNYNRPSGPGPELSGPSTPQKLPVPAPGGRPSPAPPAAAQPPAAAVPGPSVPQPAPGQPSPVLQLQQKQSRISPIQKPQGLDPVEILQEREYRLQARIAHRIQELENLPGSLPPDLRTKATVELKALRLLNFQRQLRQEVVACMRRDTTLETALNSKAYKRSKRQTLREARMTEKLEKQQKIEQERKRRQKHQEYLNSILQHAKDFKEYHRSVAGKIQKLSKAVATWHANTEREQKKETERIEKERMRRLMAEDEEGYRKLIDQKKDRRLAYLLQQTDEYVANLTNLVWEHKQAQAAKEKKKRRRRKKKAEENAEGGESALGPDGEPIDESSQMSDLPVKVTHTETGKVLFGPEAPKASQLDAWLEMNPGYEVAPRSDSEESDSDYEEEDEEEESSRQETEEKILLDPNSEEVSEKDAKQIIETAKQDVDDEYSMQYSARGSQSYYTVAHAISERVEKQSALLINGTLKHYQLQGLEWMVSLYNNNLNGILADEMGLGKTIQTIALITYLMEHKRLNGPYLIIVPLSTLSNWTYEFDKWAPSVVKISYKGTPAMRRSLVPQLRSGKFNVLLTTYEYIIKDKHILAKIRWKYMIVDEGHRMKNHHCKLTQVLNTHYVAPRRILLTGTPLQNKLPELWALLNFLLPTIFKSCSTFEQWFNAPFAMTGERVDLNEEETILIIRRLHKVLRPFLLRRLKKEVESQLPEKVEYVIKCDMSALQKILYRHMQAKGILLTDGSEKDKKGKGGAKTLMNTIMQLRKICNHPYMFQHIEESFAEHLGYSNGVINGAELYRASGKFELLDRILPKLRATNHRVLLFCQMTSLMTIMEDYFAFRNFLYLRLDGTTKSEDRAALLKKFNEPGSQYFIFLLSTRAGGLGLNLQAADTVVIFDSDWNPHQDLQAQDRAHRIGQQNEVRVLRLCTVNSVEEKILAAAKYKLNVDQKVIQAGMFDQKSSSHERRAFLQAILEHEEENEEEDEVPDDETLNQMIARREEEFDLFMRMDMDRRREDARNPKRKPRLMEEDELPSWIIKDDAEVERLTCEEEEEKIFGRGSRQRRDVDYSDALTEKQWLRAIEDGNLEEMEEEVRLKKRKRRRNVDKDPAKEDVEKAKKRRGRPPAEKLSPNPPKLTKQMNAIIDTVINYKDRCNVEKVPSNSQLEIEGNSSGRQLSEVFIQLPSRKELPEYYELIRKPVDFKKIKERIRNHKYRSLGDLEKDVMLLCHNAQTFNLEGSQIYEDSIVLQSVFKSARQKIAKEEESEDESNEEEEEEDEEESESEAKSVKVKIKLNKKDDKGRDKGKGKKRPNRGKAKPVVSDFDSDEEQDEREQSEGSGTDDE

| Structure (SMILES) | BRM Max % Inhibition [1] [%] | IC50 [1] [µM] | IC50 [2] [µM] | Emax [2] [%] | BRG1 Max % Inhibition [2] [%] |
| --- | --- | --- | --- | --- | --- |
| CC(C)S(=O)(=O)c1cccc(C(=O)NCC(=O)Nc2nc(-c3cccc(N4C[C@@H](C)O[C@@H](C)C4)c3)cs2)c1 [Compound 14, N-(2-((4-(3-((2S,6R)-2,6-dimethylmorpholino)phenyl)thiazol-2-yl)amino)-2-oxoethyl)-3-(isopropylsulfonyl)benzamide] | >95 | < 0.1 | 0.1 to 1 | > 80 | – |
| CC(C)(CO)c1cccc(C(=O)NCC(=O)Nc2nc(-c3cccc(-c4ccncc4)c3)cs2)c1 [Compound 73, 3-(1-hydroxy-2-methylpropan-2-yl)-N-(2-oxo-2-((4-(3-(pyridin-4-yl)phenyl)thiazol-2-yl)amino)ethyl)benzamide] | >95 | < 0.1 | 0.1 to 1 | > 80 | – |
| C[C@@H]1CN(c2cccc(-c3csc(NC(=O)CNC(=O)c4ccc5c(c4)[C@](C#N)(CO)CC5)n3)n2)C[C@H](C)O1 [Compound 159, (R)-3-cyano-N-(2-((4-(6-((cis)-2,6-dimethylmorpholino)pyridin-2-yl)thiazol-2-yl)amino)-2-oxoethyl)-3-(hydroxymethyl)-2,3-dihydro-1H-indene-5-carboxamide] | >95 | < 0.1 | < 0.1 | > 95 | – |
| Cc1nccc(-c2cccc(-c3csc(NC(=O)CNC(=O)c4ccc5c(c4)[C@@](C)(CO)CC5)n3)n2)n1 [Compound 214] | >90 | 0.1 to 1 | 0.1 to 1 | > 80 | – |
| C[C@]1(CO)CCc2ccc(C(=O)NCC(=O)Nc3nc(-c4cccc(-c5cccnc5O)n4)cs3)cc21 [Compound 191, (S)-N-(2-((4-(2′-hydroxy-[2,3′-bipyridin]-6-yl)thiazol-2-yl)amino)-2-oxoethyl)-3-(hydroxymethyl)-3-methyl-2,3-dihydro-1H-indene-5-carboxamide] | >90 | 0.1 to 1 | 0.1 to 1 | > 80 | – |
| CCS1(=O)=NCc2ccc(C(=O)NCC(=O)Nc3nc(-c4cccc(N5C[C@@H](C)O[C@@H](C)C5)c4)cs3)cc21 (stereo partly drawn) [Compound 367, N-(2-((4-(3-((cis)-2,6-dimethylmorpholino)phenyl)thiazol-2-yl)amino)-2-oxoethyl)-1-ethyl-3H-1I4-benzo[d]isothiazole-6-carboxamide 1-oxide] | >85 | 0.1 to 1 | 1 to 5 | > 85 | – |
| Cc1nccc(-c2cccc(-c3csc(NC(=O)CNC(=O)c4ccc5c(c4)[C@](C)(CO)CC5)n3)n2)n1 [Compound 215] | >95 | < 0.1 | 0.1 to 1 | > 80 | – |
| CN1CCc2ccc(-c3csc(NC(=O)CNC(=O)c4ccc5c(c4)[C@@](C)(CO)CC5)n3)cc2C1=O [Compound 258, (S)-3-(hydroxymethyl)-3-methyl-N-(2-((4-(2-methyl-1-oxo-1,2,3,4-tetrahydroisoquinolin-7-yl)thiazol-2-yl)amino)-2-oxoethyl)-2,3-dihydro-1H-indene-5-carboxamide] | >80 | 0.1 to 1 | 1 to 5 | – | >60 |
| C[C@@H]1CN(c2cccc(-c3csc(NC(=O)CNC(=O)c4cccc([C@]5(F)C[C@H](F)C5)c4)n3)n2)C[C@H](C)O1 [Compound 358, 3-((1R,3R)-1,3-difluorocyclobutyl)-N-(2-((4-(6-((cis)-2,6-dimethylmorpholino)pyridin-2-yl)thiazol-2-yl)amino)-2-oxoethyl)benzamide] | >95 | < 0.1 | 0.1 to 1 | > 95 | – |

Second part, the molecule after the results:

| BRM Max % Inhibition [1] [%] | IC50 [1] [µM] | IC50 [2] [µM] | Emax [2] [%] | BRG1 Max % Inhibition [2] [%] | Structure (SMILES) |
| --- | --- | --- | --- | --- | --- |
| >95 | < 0.1 | 0.1 to 1 | > 95 | – | C[C@@]1(C#N)COCc2ccc(C(=O)NCC(=O)Nc3nc(-c4cccc([C@]56CCOC[C@H]5C6)c4)cs3)cc21 [Compound 295, (R)-N-(2-((4-(3-((1S,6R)-3-oxabicyclo[4.1.0]heptan-6-yl)phenyl)thiazol-2-yl)amino)-2-oxoethyl)-4-cyano-4-methylisochromane-6-carboxamide] |
| >95 | 0.1 to 1 | 1 to 5 | > 95 | – | C[C@@H]1CN(c2cccc(-c3csc(NC(=O)CNC(=O)c4cccc(C5(C(F)F)CCCO5)c4)n3)c2)C[C@H](C)O1 (stereo partly drawn) [Compound 306, 3-(2-(difluoromethyl)tetrahydrofuran-2-yl)-N-(2-((4-(3-((cis)-2,6-dimethylmorpholino)phenyl)thiazol-2-yl)amino)-2-oxoethyl)benzamide] |
| >95 | 0.1 to 1 | 1 to 5 | > 70 | – | C[C@@H]1CN(c2cccc(-c3csc(NC(=O)CNC(=O)c4ccc5c(c4)C4(CCCC4=O)CC5)n3)c2)C[C@H](C)O1 (stereo partly drawn) [Compound 195, N-(2-((4-(3-((cis)-2,6-dimethylmorpholino)phenyl)thiazol-2-yl)amino)-2-oxoethyl)-2-oxo-2′,3′-dihydrospiro[cyclopentane-1,1′-indene]-6′-carboxamide] |
| >95 | < 0.1 | < 0.1 | > 95 | – | CC1CCN1c1cccc(-c2csc(NC(=O)CNC(=O)c3ccc4c(c3)[C@](C)(C#N)COC4)n2)c1 (stereo partly drawn) [Compound 351, (4R)-4-cyano-4-methyl-N-(2-((4-(3-(2-methylazetidin-1-yl)phenyl)thiazol-2-yl)amino)-2-oxoethyl)isochromane-6-carboxamide] |
| >95 | < 0.1 | 0.1 to 1 | > 90 | – | Cn1ccc2ccc(-c3csc(NC(=O)CNC(=O)c4ccc5c(c4)[C@](C)(CO)CC5)n3)cc2c1=O [Compound 177, (R)-3-(hydroxymethyl)-3-methyl-N-(2-((4-(2-methyl-1-oxo-1,2-dihydroisoquinolin-7-yl)thiazol-2-yl)amino)-2-oxoethyl)-2,3-dihydro-1H-indene-5-carboxamide] |
| >70 | 1 to 5 | > 5 | > 50 | – | CC1(C)c2cc(C(=O)NCC(=O)Nc3nc(-c4cccc(-c5ccncc5)c4)cs3)ccc2C[C@@H]1N [Compound 250, (S)-2-amino-3,3-dimethyl-N-(2-oxo-2-((4-(3-(pyridin-4-yl)phenyl)thiazol-2-yl)amino)ethyl)-2,3-dihydro-1H-indene-5-carboxamide] |
| >70 | 0.1 to 1 | > 5 | < 30 | – | Cc1cc(C(=O)NCC(=O)Nc2nc(-c3cccc(-c4ccncc4)c3)cs2)cc(S(=O)(=O)C(C)C)c1C [Compound 16, 3-(isopropylsulfonyl)-4,5-dimethyl-N-(2-oxo-2-((4-(3-(pyridin-4-yl)phenyl)thiazol-2-yl)amino)ethyl)benzamide] |
| >80 | 0.1 to 1 | 1 to 5 | > 60 | – | CC(C)S(=O)(=O)c1cccc(C(=O)NCC(=O)Nc2nc(-c3cccc(N4CCOCC4)c3)cs2)c1 [Compound 126, 3-isopropylsulfonyl-N-[2-[[4-(3-morpholinophenyl)thiazol-2-yl]amino]-2-oxoethyl]benzamide] |
| >95 | < 0.1 | 0.1 to 1 | > 95 | – | C[C@@H]1CN(c2cccc(-c3csc(NC(=O)CNC(=O)c4ccc5c(c4)C4(COC5)COC4)n3)n2)C[C@H](C)O1 [Compound 300, N-(2-((4-(6-((cis)-2,6-dimethylmorpholino)pyridin-2-yl)thiazol-2-yl)amino)-2-oxoethyl)spiro[isochromane-4,3′-oxetane]-6-carboxamide] |
| >85 | 0.1 to 1 | > 5 | > 85 | – | C[C@@H]1CN(c2cccc(-c3csc(NC(=O)CNC(=O)c4cc(C(C)(C)C)ncc4F)n3)c2)C[C@H](C)O1 [Compound 383, 2-(tert-butyl)-N-(2-((4-(3-((cis)-2,6-dimethylmorpholino)phenyl)thiazol-2-yl)amino)-2-oxoethyl)-5-fluoroisonicotinamide] |
| >95 | 0.1 to 1 | 1 to 5 | > 80 | – | CC(C)(CN)c1cccc(C(=O)NCC(=O)Nc2nc(-c3cccc(-c4ccncc4)c3)cs2)c1 [Compound 64, 3-(1-amino-2-methylpropan-2-yl)-N-(2-oxo-2-((4-(3-(pyridin-4-yl)phenyl)thiazol-2-yl)amino)ethyl)benzamide] |
| >95 | 0.1 to 1 | 1 to 5 | > 95 | – | COc1cccc(-c2csc(NC(=O)CNC(=O)c3ccc4c(c3)C(C)(C#N)CNC4)n2)c1 (centres unmarked) [Compound 311, 4-cyano-N-(2-((4-(3-methoxyphenyl)thiazol-2-yl)amino)-2-oxoethyl)-4-methyl-1,2,3,4-tetrahydroisoquinoline-6-carboxamide] |
| >85 | 0.1 to 1 | 1 to 5 | > 85 | – | CC1(C#N)CCOc2ccc(C(=O)NCC(=O)Nc3nc(-c4cccc([C@@H]5CC5(F)F)n4)cs3)cc21 (stereo in doubt) [Compound 380, (S)-4-cyano-N-(2-((4-(6-((S)-2,2-difluorocyclopropyl)pyridin-2-yl)thiazol-2-yl)amino)-2-oxoethyl)-4-methylchromane-6-carboxamide] |
| >75 | 0.1 to 1 | 1 to 5 | > 75 | – | C[C@@]1(C#N)COCc2ccc(C(=O)NC3(C(=O)Nc4nc(-c5cccc(C(F)F)c5)cs4)CC3)cc21 [Compound 333, (R)-4-cyano-N-(1-((4-(3-(difluoromethyl)phenyl)thiazol-2-yl)carbamoyl)cyclopropyl)-4-methylisochromane-6-carboxamide] |
